In publication PMC8596838, “Xylose‐Configured Cyclophellitols as Selective Inhibitors for Glucocerebrosidase” (Chembiochem, 2021):
Where two headings read alike, the source gives them in different places.

Key:
[1] = system: glucosylsphingosine (GlcSph); experiment: GlcSph levels in inhibitor treated zebrafish larvae (LC-MS); format: in vivo, zebrafish (Danio rerio); conditions: treated 103 hours from 8 hpf, n=2
Excerpt: We further investigated the affinity of 1 and 2 towards β‐D‐glucosidases in living animals using zebrafish (Danio rerio) embryos, which express both GBA and GBA2. Following exposure for 5 days, fish larvae were sacrificed and lysed, and cABPP with ABP 10 was used to detect residual active β‐D‐glucosidase molecules in the lysates and for IC50 determination. […] Aziridine compound 2 is also selective against GBA over GBA2, albeit with a narrower selectivity window (Figure 6A–C). […]
Figure 6 In vivo inhibitory effect of β‐D‐xylo‐configured compounds on β‐glucosidases in zebrafish (Danio rerio) larvae. […] Fluorescently labeled proteins were visualized after SDS‐PAGE, only GBA and GBA2 were assessed in zebrafish larvae model. (B) Apparent IC50 values towards β‐glucosidases (GBA and GBA2) were determined by the fluorescence quantification based on cABPP results. […] (D) GlcSph levels in zebrafish larvae were determined as described in experiment section, n=2 replicates.
Sphingolipid extraction and analysis by mass spectrometry in inhibitor treated zebrafish larvae: Zebrafish embryos at 8 hours post fertilization (hpf) were seeded in 96‐well plates (1 fish embryo/ well, 200 μL egg water/well) and treated with corresponding inhibitors in different concentration for 103 hours at 28.5 °C. […] Lipids were extracted and measured according to methods described previously.[48] […]

GBA2 = GBA2 (Danio rerio, UniProt E7F5W0); experiment: In vivo inhibition in zebrafish larvae, read out by cABPP with ABP 10, GBA2; parameters: species or system zebrafish (Danio rerio)
Chain of GBA2 (E7F5W0 entry or part of it): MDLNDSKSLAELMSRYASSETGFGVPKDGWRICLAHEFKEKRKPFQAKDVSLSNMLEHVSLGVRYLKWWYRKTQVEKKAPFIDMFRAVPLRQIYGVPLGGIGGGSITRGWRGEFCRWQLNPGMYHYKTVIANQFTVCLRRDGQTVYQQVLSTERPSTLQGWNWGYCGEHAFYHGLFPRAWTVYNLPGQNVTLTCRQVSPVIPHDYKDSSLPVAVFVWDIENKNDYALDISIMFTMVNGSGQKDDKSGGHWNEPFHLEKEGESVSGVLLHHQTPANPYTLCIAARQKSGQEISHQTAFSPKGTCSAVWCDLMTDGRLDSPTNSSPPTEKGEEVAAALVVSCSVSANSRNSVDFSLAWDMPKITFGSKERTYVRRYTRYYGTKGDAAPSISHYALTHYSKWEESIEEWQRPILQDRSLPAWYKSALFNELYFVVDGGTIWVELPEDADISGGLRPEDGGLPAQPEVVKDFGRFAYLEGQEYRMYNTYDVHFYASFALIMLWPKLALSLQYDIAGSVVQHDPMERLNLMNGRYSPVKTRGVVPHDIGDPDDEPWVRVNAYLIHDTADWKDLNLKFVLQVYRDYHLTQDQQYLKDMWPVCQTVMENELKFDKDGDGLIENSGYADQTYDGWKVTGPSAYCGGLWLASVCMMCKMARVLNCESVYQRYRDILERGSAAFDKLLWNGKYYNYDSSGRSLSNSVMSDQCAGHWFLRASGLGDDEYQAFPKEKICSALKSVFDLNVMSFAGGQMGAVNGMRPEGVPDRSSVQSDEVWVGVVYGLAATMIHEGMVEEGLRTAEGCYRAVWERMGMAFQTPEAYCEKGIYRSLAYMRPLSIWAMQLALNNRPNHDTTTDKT
Excerpt: We further investigated the affinity of 1 and 2 towards β‐D‐glucosidases in living animals using zebrafish (Danio rerio) embryos, which express both GBA and GBA2. Following exposure for 5 days, fish larvae were sacrificed and lysed, and cABPP with ABP 10 was used to detect residual active β‐D‐glucosidase molecules in the lysates and for IC50 determination. […] Aziridine compound 2 is also selective against GBA over GBA2, albeit with a narrower selectivity window (Figure 6A–C). We noted that the apparent IC50 in zebrafish embryo is much […] than the observed in intact cells despite the longer incubation time, which could be a result of poorer bioavailability of the cyclophellitol‐related structures in whole animal, as noted earlier by us.[36]
Figure 6 In vivo inhibitory effect of β‐D‐xylo‐configured compounds on β‐glucosidases in zebrafish (Danio rerio) larvae. (A) Larvae were exposed to 5 dpf with the indicated inhibitor 1 or 2 in the medium. Larvae were lysed and incubated with fluorescent ABP 10. Fluorescently labeled proteins were visualized after SDS‐PAGE, only GBA and GBA2 were assessed in zebrafish larvae model. (B) Apparent IC50 values towards β‐glucosidases (GBA and GBA2) were determined by the fluorescence quantification based on cABPP results. (C) In vivo inhibition curves. (D) GlcSph levels in zebrafish larvae were determined as described in experiment section, n=2 replicates.
ABP labeling procedure: Glycosidases were labeled with excess fluorescent ABPs at optimum conditions. ABP labeling was performed at 37 °C for 30 min for all materials (if not otherwise stated), in a total sample volume of 20–40 μL and 0.5–1 % DMSO concentration. GBA was labeled with 200 nM ABP 9 (pH 5.2, 0.1 % (v/v) Triton‐100, 0.2 % (w/v) sodium taurocholate), or labeled together with GBA2 using 200 nM β‐D‐glucose‐configured aziridine ABP 10 at pH 5.8, or labeling together with GBA2 and GBA3 using 200 nM β‐D‐glucose‐configured aziridine ABP 10 at pH 6.0. After ABP incubation, proteins were denatured by boiling the samples with 5× Laemmli buffer (50 % (v/v) 1 M Tris‐HCl, pH 6.8, 50 % (v/v) 100 % glycerol, 10 % (w/v) DTT, 10 % (w/v) SDS, 0.01 % (w/v) bromophenol blue) for 5 min at 98 °C, and separated by electrophoresis on 10 % (w/v) SDS‐PAGE gels running continuously at 90 V. Wet slab‐gels were scanned on fluorescence using the Typhoon FLA 9500 (GE Healthcare) at λEX 473 nm and λEM≥510 nm for green fluorescent ABP 8; and at λEX 635 nm and λEM≥665 nm for ABP 6, 9 and 10. ABP‐emitted fluorescence was quantified using ImageQuant software (GE Healthcare, Chicago, IL, USA) and curve‐fitted using Prism 8.0 (GraphPad Software). After fluorescence scanning, SDS‐PAGE gels were stained for total protein with Coomassie G250 and scanned on a ChemiDoc MP imager (Bio‐Rad, Hercules, CA, USA).[25]
Inhibition of enzymes in zebrafish larvae: Experiments were performed with 5 dpf larvae. For inhibitor treatment, a single fertilized embryo was seeded in a well of a 96‐wells plate, and exposed to 200 μL corresponding inhibitor for 115 hours at 28.5 °C. Per condition, n=24 embryos were used. At 115 hours (5 dpf), larvae were collected, rinsed three times with egg water, fully aspirated, snap‐frozen in liquid nitrogen and stored at −80 °C until homogenization in 96 μL 25 mM potassium phosphate buffer per 24 individuals. Lysis was conducted by sonication with a Polytron PT 1300D sonicator (Kinematica, Luzern, Switzerland) on ice at 20 % power for three seconds, and repeated three times. […]

[2] = IC50 ratio, zebrafish larvae 5 dpf

| effect on ABP labelling of GBA2 in zebrafish at 150 μM (GBA2; 150 μM, exposure for 5 days) | IC50 (GBA2; larvae exposed to 5 dpf, inhibitor in the medium, cABPP quantification; read-out: Zebrafish larvae IC50 GBA2) [µM] | Compound | GlcSph levels in zebrafish embryos [1] | GBA2/GBA ratio, zebrafish larvae (GBA2; [2]) | IC50 (GBA2; read-out: Zebrafish larvae IC50 GBA2; larvae exposed to 5 dpf, inhibitor in the medium, cABPP quantification) [µM] |
| --- | --- | --- | --- | --- | --- |
| without targeting GBA2 | > 150 | O[C@@H]1[C@@H](O)[C@H](O)C[C@H]2O[C@@H]12 [compound 1, xylo‐cyclophellitol] | increased levels of GlcSph | > 50 | – |
| – | – | O[C@@H]1[C@@H](O)[C@H](O)C[C@H]2N[C@@H]12 [compound 2, β‐D‐xylo‐Cyclophellitol aziridine] | increased levels of GlcSph | 21 | 150 |
